The subject of experiment [1] is MCF-7 (Homo sapiens). The experiment can be described thus: Cytotoxicity against MCF-7 cells at 5 uM.
A further experiment deals with T1, Estrogen receptor (Homo sapiens, UniProt P03372).
T1 sequence (P03372 whole entry): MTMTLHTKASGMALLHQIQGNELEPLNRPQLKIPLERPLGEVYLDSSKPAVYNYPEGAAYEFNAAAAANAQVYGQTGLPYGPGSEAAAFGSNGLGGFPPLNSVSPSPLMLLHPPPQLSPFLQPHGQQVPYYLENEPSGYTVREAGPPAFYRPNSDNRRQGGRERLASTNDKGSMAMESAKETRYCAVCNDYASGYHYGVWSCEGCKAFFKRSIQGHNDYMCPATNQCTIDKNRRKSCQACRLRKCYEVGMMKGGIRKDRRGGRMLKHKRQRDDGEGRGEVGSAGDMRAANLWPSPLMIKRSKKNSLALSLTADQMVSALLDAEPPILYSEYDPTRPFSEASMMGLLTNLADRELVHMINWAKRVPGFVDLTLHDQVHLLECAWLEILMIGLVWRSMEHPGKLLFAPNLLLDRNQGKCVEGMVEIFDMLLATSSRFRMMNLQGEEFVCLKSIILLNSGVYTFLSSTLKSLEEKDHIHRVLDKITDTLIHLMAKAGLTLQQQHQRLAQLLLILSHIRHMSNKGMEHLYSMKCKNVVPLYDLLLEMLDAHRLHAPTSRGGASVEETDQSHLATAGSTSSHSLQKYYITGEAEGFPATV
The experiment can be described thus: Antiestrogenic activity in MCF-7-2a cells as concentration required to reduce estradiol effect by 50%. The class given is functional, cell-based.

Experiment [2] deals with MCF-7 (Homo sapiens). Put plainly: Antitumor activity against MCF-7 cells at 5 uM.

Structures are written as SMILES.

For 8 compounds, Cytotoxicity and IC50 results are on record in ChEMBL document CHEMBL1135829, “Investigations on estrogen receptor binding. The estrogenic, antiestrogenic, and cytotoxic properties of C2-alkyl-substituted 1,1-bis(4-hydroxyphenyl)-2-phenylethenes” (J Med Chem, 2002).

One may read the IC50 as the point on the concentration scale where inhibition reaches its midpoint. Higher therefore signals weaker potency.

`CCC(=C(c1ccc(O)cc1)c1ccc(O)cc1)c1ccccc1` registered a Cytotoxicity with MCF-7 (Homo sapiens) [1] of 99%. The compound also registered an IC50 at Estrogen receptor of 15 nM.

Take `CC(=C(c1ccc(O)cc1)c1ccc(O)cc1)c1ccccc1`: in the experiment on MCF-7 (Homo sapiens) [1], the Cytotoxicity is listed as 90%. This compound registered an IC50 against Estrogen receptor of 30 nM.

At Estrogen receptor, `CCCCC(=C(c1ccc(O)cc1)c1ccc(O)cc1)c1ccccc1` had an IC50 of 500 nM. In the experiment on MCF-7 (Homo sapiens) [2], this compound gave a Cytotoxicity of 87%.

The compound `Oc1ccc(C(=C(CC(F)(F)F)c2ccccc2)c2ccc(O)cc2)cc1` returned a Cytotoxicity in the experiment on MCF-7 (Homo sapiens) [1] of 68%. Also, the IC50 against Estrogen receptor turned out to be 9 nM.

As for `CCCC(=C(c1ccc(O)cc1)c1ccc(O)cc1)c1ccccc1`, the Cytotoxicity with MCF-7 (Homo sapiens) [1] was determined as 98%. In addition, the IC50 against Estrogen receptor was 50 nM.

`Oc1ccc(C(=Cc2ccccc2)c2ccc(O)cc2)cc1` showed an IC50 against Estrogen receptor of 150 nM. The same compound showed a Cytotoxicity in the experiment on MCF-7 (Homo sapiens) [2] of 92%.

On Estrogen receptor, `CC/C(=C(\c1ccccc1)c1ccc(O)cc1)c1ccccc1` had an IC50 of 7 nM. This compound also came in with a Cytotoxicity in the experiment with MCF-7 (Homo sapiens) [2] of 25%.

In turn, `CC/C(=C(\c1ccccc1)c1ccc(OCCN(C)C)cc1)c1ccccc1` [TAMOXIFEN] had a Cytotoxicity with MCF-7 (Homo sapiens) [2] of 15%.
